Literature values as cited in patent US20140363510A1, “PHARMACEUTICAL COMPOSITION INCLUDING PIMOBENDAN” (BOEHRINGER INGELHEIM VETMEDICA GMBH, priority 2004, published 2014).

solubility in water (water): hardly dissolves in water
Structure (SMILES): COc1ccc(-c2nc3ccc(C4=NNC(=O)CC4C)cc3[nH]2)cc1 (centres unmarked) [Pimobendan, 4,5-dihydro-6-[2-(4-methoxyphenyl)-1H-benzimidazol-5-yl]-5-methyl-3(2H)-pyridazone]
solubility in aqueous media (aqueous media, pH-dependent): low solubility in aqueous media and a very highly pH-dependent solubility
